Data reported in patent US20230146455A1, “TREATMENT OF INFLAMMATORY DISEASES WITH PEPTIDES AND PHARMACEUTICAL COMPOSITIONS” (Yuyu Pharma, Inc., priority 2020, published 2023).
“And” between values parts separate entries of the source, which are not always exact repeats. Equal values may be shown once. Where a SMILES comes first, the peptide text is derived from it. [ ]: non-standard residue; d: D form. Hyp = O=C(O)[C@@H]1C[C@@H](O)CN1

What was measured:
IL-10 = assay: Example 8 main study Luminex, LPS hPBMCs: IL-10; format: cell-based, human; details: for IL-10 Concentration: individual replicates; for IL-10 Concentration (pg/ml), Mean: mean of replicates
Procedure: (§1) Human PBMCs were pretreated with YY-101, YDE-011, YDE-043 or reference compound; Xiidra® at various concentration (ranging from […] to 500 nM) for 2 h before stimulation. An equal volume of 0.5% DMSO was used as a vehicle control. Then, the cells were treated with LPS at 5 ug/ml, which was selected based on the pilot study. The supernatants from treated cells were harvested at 24 h and placed in a 96 well for Luminex cytokine & chemokine profiling using a Luminex 200 multiplex assay (Luminex; R&D system, USA).
(§2) The main study arm with triplicate wells per group in a 24-well plate: • 1. Blank • 2. PBMC: 0.5% DMSO • 3. PBMC+LPS (5 ug/ml) • 4. PBMC+YY-101 500 nM • 5. PBMC+YY-101 50 nM • 6. PBMC+YY-101 5 nM • 7. PBMC+YY-101 0.5 nM • 8. PBMC+LPS (5 ug/ml)+Xiidra® 500 nM • 9. PBMC+LPS (5 ug/ml)+Xiidra® 50 nM • 10. PBMC+LPS (5 ug/ml)+Xiidra® 5 nM • 11. PBMC+LPS (5 ug/ml)+Xiidra® 0.5 nM • 12. PBMC+LPS (5 ug/ml)+Xiidra® 0.05 nM • 13. PBMC+LPS (5 ug/ml)+Xiidra® 0.005 nM • 14. PBMC+LPS (5 ug/ml)+YY-101 500 nM • 15. PBMC+LPS (5 ug/ml)+YY-101 50 nM • 16. PBMC+LPS (5 ug/ml)+YY-101 5 nM • 17. PBMC+LPS (5 ug/ml)+YY-101 0.5 nM • 18. PBMC+LPS (5 ug/ml)+YY-101 0.05 nM • 19. PBMC+LPS (5 ug/ml)+YY-101 0.005 nM • 20. PBMC+LPS (5 ug/ml)+YDE-011 500 nM • 21. PBMC+LPS (5 ug/ml)+YDE-011 50 nM • 22. PBMC+LPS (5 ug/ml)+YDE-011 5 nM • 23. PBMC+LPS (5 ug/ml)+YDE-011 0.5 nM • 24. PBMC+LPS (5 ug/ml)+YDE-011 0.05 nM • 25. PBMC+LPS (5 ug/ml)+YDE-011 0.005 nM • 26. PBMC+LPS (5 ug/ml)+YDE-043 500 nM • 27. PBMC+LPS (5 ug/ml)+YDE-043 50 nM • 28. PBMC+LPS (5 ug/ml)+YDE-043 5 nM • 29. PBMC+LPS (5 ug/ml)+YDE-043 0.5 nM • 30. PBMC+LPS (5 ug/ml)+YDE-043 0.05 nM • 31. PBMC+LPS (5 ug/ml)+YDE-043 0.005 nM
(§3) Multiplex assay was used to measure 30 cytokines and chemokines. The 1:200 diluted cell supernatant and serial dilution of the standard were dispensed into a 96 well plate at 50 ul/well. Then, the pre-mixed cocktail of antibody-coated magnetic beads was dispensed at 50 ul/well and incubated at room temperature for 2 h in a horizontal orbital microplate shaker at 800±500 rpm. The beads were washed using a magnetic device to prevent loss. The biotin-antibody was dispensed in 50 ul of each well and incubated at room temperature for 1 h in a shaker at 800±500 rpm. After washing, streptavidin-PE was added at 50 ul/well and incubated at room temperature for 30 min in a shaker under the same conditions. Finally, after washing, wash buffer (100 ul/well) was added to the plate and incubated in a shaker for 2 min. The Luminex™ 200 setting were set according to the manufacturer's protocol. The data was calculated with a standard five-parameter logistic nonlinear regression analysis of the data (xPonent software 4.2, USA). Results were presented as concentration (ng/ml or pg/ml).

CCL3/MIP-1 alpha = assay: Example 8 main study Luminex, LPS hPBMCs: CCL3/MIP-1 alpha; format: cell-based, human
Procedure: as §1, §2, §3

[1] = PBMC + LPS(5 ug/ml) + test article 0.005 nM
[2] = PBMC + LPS(5 ug/ml) + test article 0.05 nM
[3] = PBMC + LPS(5 ug/ml) + test article 0.5 nM
[4] = PBMC + LPS(5 ug/ml) + test article 5 nM
[5] = PBMC + LPS(5 ug/ml) + test article 50 nM
[6] = PBMC + LPS(5 ug/ml) + test article 500 nM
[7] = at as low as 5 μM, LPS 5 ug/mL 24 hrs
[8] = PBMC + LPS(5 ug/ml) + test article 0.005 nM, Mean
[9] = PBMC + LPS(5 ug/ml) + test article 0.005 nM, single replicates
[10] = PBMC + LPS(5 ug/ml) + test article 0.05 nM, Mean
[11] = PBMC + LPS(5 ug/ml) + test article 0.05 nM, single replicates
[12] = PBMC + LPS(5 ug/ml) + test article 0.5 nM, Mean
[13] = PBMC + LPS(5 ug/ml) + test article 0.5 nM, single replicates
[14] = PBMC + LPS(5 ug/ml) + test article 5 nM, Mean
[15] = PBMC + LPS(5 ug/ml) + test article 5 nM, single replicates
[16] = PBMC + LPS(5 ug/ml) + test article 50 nM, Mean
[17] = PBMC + LPS(5 ug/ml) + test article 50 nM, single replicates
[18] = PBMC + LPS(5 ug/ml) + test article 500 nM, Mean
[19] = PBMC + LPS(5 ug/ml) + test article 500 nM, single replicates
[20] = PBMC + test article 0.5 nM, no LPS, Mean
[21] = PBMC + test article 0.5 nM, no LPS, single replicates
[22] = PBMC + test article 5 nM, no LPS, Mean
[23] = PBMC + test article 5 nM, no LPS, single replicates
[24] = PBMC + test article 0.05 uM, no LPS, Mean
[25] = PBMC + test article 0.05 uM, no LPS, single replicates
[26] = PBMC + test article 50 nM, no LPS, Mean
[27] = PBMC + test article 50 nM, no LPS, single replicates
[28] = PBMC + test article 500 nM, no LPS, Mean
[29] = PBMC + test article 500 nM, no LPS, single replicates

## CC(C)C[C@H](NC(=O)CNC(=O)[C@H](CC(=O)O)NC(=O)[C@H](CCC(N)=O)NC(=O)CNC(=O)[C@@H]1C[C@@H](O)CN1)C(=O)N[C@@H](C)C(=O)NCC(=O)N1CCC[C@H]1C(=O)N[C@@H](CCCCN)C(=O)O [YY-101] (H-[Hyp]GQDGLAGPK-OH; N-terminus and C-terminus assumed)
IL-10; [1]
  IL-10 Concentration: 832.3 pg/mL and 677.1 pg/mL and 780.9 pg/mL
  IL-10 Concentration (pg/ml), Mean: 763.4 pg/mL
IL-10; [2]
  IL-10 Concentration: 806.6 pg/mL and 1121.8 pg/mL and 883.3 pg/mL
  IL-10 Concentration (pg/ml), Mean: 937.2 pg/mL
IL-10; [3]
  IL-10 Concentration: 870.5 pg/mL and 703.2 pg/mL and 716.2 pg/mL
  IL-10 Concentration (pg/ml), Mean: 763.3 pg/mL
IL-10; [4]
  IL-10 Concentration: 857.8 pg/mL and 934.0 pg/mL and 1009.5 pg/mL
  IL-10 Concentration (pg/ml), Mean: 933.8 pg/mL
IL-10; [5]
  IL-10 Concentration: 651.0 pg/mL and 845.0 pg/mL and 793.8 pg/mL
  IL-10 Concentration (pg/ml), Mean: 763.3 pg/mL
IL-10; [6]
  IL-10 Concentration: 832.3 pg/mL and 883.3 pg/mL and 755.1 pg/mL
  IL-10 Concentration (pg/ml), Mean: 823.5 pg/mL
IL-10; PBMC + test article 0.5 nM, no LPS, dilution 200
  IL-10 Concentration: <2.59 pg/mL
IL-10; PBMC + test article 5 nM, no LPS, dilution 200
  IL-10 Concentration: <2.59 pg/mL
IL-10; PBMC + test article 0.05 uM, no LPS, dilution 200
  IL-10 Concentration: <2.59 pg/mL
IL-10; PBMC + test article 50 nM, no LPS, dilution 200
  IL-10 Concentration: <2.59 pg/mL
IL-10; PBMC + test article 500 nM, no LPS, dilution 200
  IL-10 Concentration: <2.59 pg/mL
IL-10; [7]
  LPS-induced IL-10 (in words): significantly reduced
CCL3/MIP-1 alpha; [8]
  CCL3/MIP-1 alpha Concentration: 33793.5 pg/mL
  CCL3/MIP-1 alpha MFI: 46.8
CCL3/MIP-1 alpha; [9]
  CCL3/MIP-1 alpha Concentration: 35134.4 pg/mL and 33380.1 pg/mL and 32865.8 pg/mL
  CCL3/MIP-1 alpha MFI: 49.5 and 46.0 and 45.0
CCL3/MIP-1 alpha; [10]
  CCL3/MIP-1 alpha Concentration: 36420.8 pg/mL
  CCL3/MIP-1 alpha MFI: 52.2
CCL3/MIP-1 alpha; [11]
  CCL3/MIP-1 alpha Concentration: 35866.0 pg/ml (2×) and 37530.4 pg/ml
  CCL3/MIP-1 alpha MFI: 51.0 (2×) and 54.5
CCL3/MIP-1 alpha; [12]
  CCL3/MIP-1 alpha Concentration: 34955.7 pg/mL
  CCL3/MIP-1 alpha MFI: 49.2
CCL3/MIP-1 alpha; [13]
  CCL3/MIP-1 alpha Concentration: 36107.4 pg/mL and 33380.1 pg/mL and 35379.6 pg/mL
  CCL3/MIP-1 alpha MFI: 51.5 and 46.0 and 50.0
CCL3/MIP-1 alpha; [14]
  CCL3/MIP-1 alpha Concentration: 34545.7 pg/mL
  CCL3/MIP-1 alpha MFI: 48.3
CCL3/MIP-1 alpha; [15]
  CCL3/MIP-1 alpha Concentration: 33380.1 pg/mL and 35866.0 pg/mL and 34390.9 pg/mL
  CCL3/MIP-1 alpha MFI: 46.0 and 51.0 and 48.0
CCL3/MIP-1 alpha; [16]
  CCL3/MIP-1 alpha Concentration: 33677.2 pg/mL
  CCL3/MIP-1 alpha MFI: 46.7
CCL3/MIP-1 alpha; [17]
  CCL3/MIP-1 alpha Concentration: 31818.4 pg/mL and 36347.5 pg/mL and 32865.8 pg/mL
  CCL3/MIP-1 alpha MFI: 43.0 and 52.0 and 45.0
CCL3/MIP-1 alpha; [18]
  CCL3/MIP-1 alpha Concentration: 33967.7 pg/mL
  CCL3/MIP-1 alpha MFI: 47.2
CCL3/MIP-1 alpha; [19]
  CCL3/MIP-1 alpha Concentration: 33635.0 pg/mL and 34887.9 pg/mL and 33380.1 pg/mL
  CCL3/MIP-1 alpha MFI: 46.5 and 49.0 and 46.0
CCL3/MIP-1 alpha; [20]
  CCL3/MIP-1 alpha Concentration: 16345.0 pg/mL
  CCL3/MIP-1 alpha MFI: 19.5
CCL3/MIP-1 alpha; [21]
  CCL3/MIP-1 alpha Concentration: 15903.7 pg/mL and 16786.4 pg/mL
  CCL3/MIP-1 alpha MFI: 19.0 and 20.0
CCL3/MIP-1 alpha; [22]
  CCL3/MIP-1 alpha Concentration: 14259.0 pg/mL
  CCL3/MIP-1 alpha MFI: 17.3
CCL3/MIP-1 alpha; [23]
  CCL3/MIP-1 alpha Concentration: 14014.0 pg/mL and 14504.0 pg/mL
  CCL3/MIP-1 alpha MFI: 17.0 and 17.5
CCL3/MIP-1 alpha; [24]
  CCL3/MIP-1 alpha Concentration: 13904.3 pg/mL
  CCL3/MIP-1 alpha MFI: 17.0
CCL3/MIP-1 alpha; [25]
  CCL3/MIP-1 alpha Concentration: 15903.7 pg/mL and 11904.9 pg/mL
  CCL3/MIP-1 alpha MFI: 19.0 and 15.0
CCL3/MIP-1 alpha; [26]
  CCL3/MIP-1 alpha Concentration: 14246.1 pg/mL
  CCL3/MIP-1 alpha MFI: 17.3
CCL3/MIP-1 alpha; [27]
  CCL3/MIP-1 alpha Concentration: 13510.6 pg/mL and 14981.7 pg/mL
  CCL3/MIP-1 alpha MFI: 16.5 and 18.0
CCL3/MIP-1 alpha; [28]
  CCL3/MIP-1 alpha Concentration: 14014.0 pg/mL
  CCL3/MIP-1 alpha MFI: 17.0
CCL3/MIP-1 alpha; [29]
  CCL3/MIP-1 alpha Concentration: 14014.0 pg/mL
  CCL3/MIP-1 alpha MFI: 17.0
CCL3/MIP-1 alpha; [7]
  LPS-induced CCL-3 (in words): significantly reduced
